Data as given in PMC6792352, “Limited Chemical Structural Diversity Found to Modulate Thyroid Hormone Receptor in the Tox21 Chemical Library” (Environmental Health Perspectives, 2019).
Counter-ions that a name gives are not always drawn.

Assay: in vitro
Settings: rat, gh3-tre-luc cells

| SMILES | CC50 at 24 h (AC50 (uM) modified / 1000) | also measured |
| --- | --- | --- |
| Cc1cc(=O)oc2cc(N(C)C)ccc12 [7-(Dimethylamino)-4-methylcoumarin] | > 90 µM | – |
| CCCCCCCCCC(=O)OCC [Ethyl decanoate] | > 90 µM | – |
| CC(=O)Nc1ccc(OC(=O)c2ccccc2O)cc1 [Acetaminosalol] | > 50 µM | – |
| CC(C)NCC(O)COc1ccc(COCCOC(C)C)cc1 (centres unmarked) [Bisoprolol fumarate] | > 50 µM | – |
| CCCCCCC1CCOC1=O (stereo not drawn) [alpha-Hexyl-gamma-butyrolactone] | > 90 µM | – |
| CCOc1ccccc1OCC [1,2-Diethoxybenzene] | > 90 µM | – |
| CC1=C[C@H](O)CC(C)(C)[C@H]1/C=C/C(C)=C/C=C/C(C)=C/C=C/C=C(C)/C=C/C=C(C)/C=C/C1=C(C)C[C@@H](O)CC1(C)C [Lutein] | 28.4 µM | – |
| CCCCCCCCCCCC(=O)OC[C@@H](O)[C@H]1OC[C@H](O)[C@H]1O [Sorbitan monododecanoate] | > 50 µM | – |
| COC(=O)[C@H]1[C@H]2C[C@H]3c4[nH]c5ccccc5c4CCN3C[C@H]2CC[C@@H]1O [Rauwolscine] | > 50 µM | – |
| COc1ccc2[nH]cc(CCN(C(C)C)C(C)C)c2c1 [5-Methoxy-N,N-diisopropyltryptamine hydrochloride] | – | CC50 at 24 h (AC50 (uM) modified / 1000, Tox21_110001=Tox21_112880, viability, 1 nM T3 present, 24 h): > 100 µM |
| COc1cc(C[C@@H](C)N)c(OC)cc1Br [R-(-)-2,5-Dimethoxy-4-bromoamphetamine hydrochloride] | 56.1 µM | – |
| OC(c1ccccc1)(c1ccccc1)C1CCNCC1 [Azacyclonol] | – | CC50 at 24 h (AC50 (uM) modified / 1000, Tox21_110001=Tox21_110399, viability, 1 nM T3 present, 24 h): > 20 µM |
| CCCC(=O)OCCc1ccccc1 [2-Phenylethyl butanoate] | > 90 µM | – |
| CNC(=O)Oc1cccc2ccccc12 [Carbaryl] | > 90 µM | – |
| CCc1cc(S(=O)(=O)O)c2cc(C(C)C)cccc1-2 [Egualen sodium] | > 50 µM | – |
| Cc1ccc(Br)cc1 [4-Bromotoluene] | > 90 µM | – |
| OCCN1CCNCC1 [1-Piperazineethanol] | > 90 µM | – |
| O=C(OCC(COC(=O)c1ccccc1)(COC(=O)c1ccccc1)COC(=O)c1ccccc1)c1ccccc1 [2,2-Bis[(benzoyloxy)methyl]dibenzoate propanediol] | > 90 µM | – |
| CC(C)(C)c1nnc(NS(=O)(=O)c2ccccc2)s1 [Glybuzole] | > 50 µM | – |
| COc1ccccc1OCC(O)CN1CCN(CC(=O)Nc2c(C)cccc2C)CC1 (centres unmarked) [Ranolazine] | > 50 µM | – |
| Oc1ccc(Cc2ccc(O)cc2)cc1 [Bis(4-hydroxyphenyl)methane] | > 90 µM | – |
| CC[C@@H](CO)NCCN[C@@H](CC)CO [Ethambutol dihydrochloride] | > 20 µM | – |

| SMILES | CC50 at 24 h (AC50 (uM) modified / 1000) | also measured |
| --- | --- | --- |
| CC(=O)CC(=O)N(C)C [N,N-Dimethylacetoacetamide] | > 90 µM | – |
| CCC(C)=O [Methyl ethyl ketone] | > 90 µM | – |
| C=CN1CCCC1=O [N-Vinyl-2-pyrrolidone] | > 90 µM | – |
| C=C(C)[C@@H]1CCC2=CC(=O)C[C@@H](C)[C@]2(C)C1 [Nootkatone] | > 90 µM | – |
| O=C1[C@H](CC[C@H](O)c2ccc(F)cc2)[C@@H](c2ccc(O)cc2)N1c1ccc(F)cc1 [Ezetimibe] | > 50 µM | – |
| CN(C)c1ccc(Cc2ccc(N(C)C)cc2)cc1 [4,4'-Methylenebis(N,N-dimethylaniline)] | > 90 µM | – |
| OC(CCN1CCCC1)(c1ccccc1)C1CCCCC1 (centres unmarked) [Procyclidine hydrochloride] | 10.6 µM | – |
| CCOC1O[C@H]([C@@H](COCc2ccccc2)OCc2ccccc2)[C@H](OCc2ccccc2)[C@H]1O (some centres unmarked) [Tribenoside] | > 20 µM | – |
| C=C(C)C(=O)OC [Methyl methacrylate] | > 90 µM | – |
| NC(=S)NC(N)=S [2,4-Dithiobiuret] | > 90 µM | – |
| Cc1ccc(/C(=C\CN2CCCC2)c2ccccn2)cc1 [Triprolidine hydrochloride monohydrate] | 58.4 µM | – |
| O=C(Cl)c1cc(C(=O)Cl)cc(C(=O)Cl)c1 [1,3,5-Benzenetricarbonyl trichloride] | 80 µM | – |
| Cc1ccccc1S(N)(=O)=O [o-Toluenesulfonamide] | > 90 µM | – |
| CN1C(=O)CN=C(c2ccccc2)c2cc([N+](=O)[O-])ccc21 [Nimetazepam] | > 50 µM | – |
| CCCCN(CCCC)CCCOC(=O)c1ccc(N)cc1 [Butacaine] | > 20 µM | – |
| COC(=O)CCc1ccc(OCC(O)CNC(C)C)cc1 (centres unmarked) [Esmolol hydrochloride] | > 50 µM | – |
| O=[N+]([O-])c1ccc(O)c([N+](=O)[O-])c1 [2,4-Dinitrophenol] | – | CC50 at 24 h (AC50 (uM) modified / 1000, Tox21_110001=Tox21_201462, viability, 1 nM T3 present, 24 h): > 90 µM; CC50 at 24 h (AC50 (uM) modified / 1000, Tox21_110001=Tox21_300030, viability, 1 nM T3 present, 24 h): 56.2 µM |
| CC(C)OC(=O)C(C)N(C(=O)c1ccccc1)c1ccc(F)c(Cl)c1 (centres unmarked) [Flamprop-isopropyl] | 50 µM | – |
| NC[C@H]1O[C@H](O[C@H]2[C@H](O[C@@H]3O[C@H](CO)[C@@H](O)[C@H]3O)[C@@H](O)[C@H](N)C[C@@H]2N)[C@H](N)[C@@H](O)[C@@H]1O [Ribostamycin sulfate] | > 20 µM | – |
| O=c1[nH]c2ccccc2n1CCCN1CCC(n2c(=O)[nH]c3cc(Cl)ccc32)CC1 [Domperidone] | 40.2 µM | – |
| CC(=O)C=CC1=C(C)CCCC1(C)C [4-(2,6,6-Trimethyl-cyclohex-1-enyl)-but-3-en-2-one] | > 90 µM | – |
